Assay results from ChEMBL document CHEMBL4342480, “Design of Dual Inhibitors of Soluble Epoxide Hydrolase and LTA4 Hydrolase” (ACS Med Chem Lett, 2020).

Key:
[1] = target: T1, Bifunctional epoxide hydrolase 2 (Homo sapiens, UniProt P34913); assay: Inhibition of full length human soluble epoxide hydrolase (1 to 555 residues) expressed in Escherichia coli BL21(DE3) using non-fluorescent PHOME as substrate preincubated for 30 mins followed by substrate addition and measured for 30 mins by fluorescence based assay
T1 sequence (P34913 whole entry): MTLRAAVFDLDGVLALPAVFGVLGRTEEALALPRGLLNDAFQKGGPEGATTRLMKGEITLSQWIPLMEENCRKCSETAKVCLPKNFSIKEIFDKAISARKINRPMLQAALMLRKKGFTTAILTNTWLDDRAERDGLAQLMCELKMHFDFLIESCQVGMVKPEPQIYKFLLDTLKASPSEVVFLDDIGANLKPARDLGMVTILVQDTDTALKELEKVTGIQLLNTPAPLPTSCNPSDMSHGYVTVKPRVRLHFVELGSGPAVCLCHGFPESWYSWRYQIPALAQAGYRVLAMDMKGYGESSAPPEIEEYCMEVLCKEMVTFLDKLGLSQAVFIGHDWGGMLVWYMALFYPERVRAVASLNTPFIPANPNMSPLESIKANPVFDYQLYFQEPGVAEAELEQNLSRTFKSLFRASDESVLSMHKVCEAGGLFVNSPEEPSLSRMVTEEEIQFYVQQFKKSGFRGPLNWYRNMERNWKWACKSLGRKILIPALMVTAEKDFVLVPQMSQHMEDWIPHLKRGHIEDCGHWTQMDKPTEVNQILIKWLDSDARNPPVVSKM

[2] = target: T2, Leukotriene A-4 hydrolase (Homo sapiens, UniProt P09960); assay: Inhibition of (His)6 tagged human recombinant LTA4H expressed in Escherichia coli BL21(DE3) using non-fluorescent L-arginine-7-amino-4-methylcoumarine as substrate preincubated for 30 mins followed by substrate addition and measured for 30 mins by fluorescence based assay
T2 sequence (P09960 whole entry): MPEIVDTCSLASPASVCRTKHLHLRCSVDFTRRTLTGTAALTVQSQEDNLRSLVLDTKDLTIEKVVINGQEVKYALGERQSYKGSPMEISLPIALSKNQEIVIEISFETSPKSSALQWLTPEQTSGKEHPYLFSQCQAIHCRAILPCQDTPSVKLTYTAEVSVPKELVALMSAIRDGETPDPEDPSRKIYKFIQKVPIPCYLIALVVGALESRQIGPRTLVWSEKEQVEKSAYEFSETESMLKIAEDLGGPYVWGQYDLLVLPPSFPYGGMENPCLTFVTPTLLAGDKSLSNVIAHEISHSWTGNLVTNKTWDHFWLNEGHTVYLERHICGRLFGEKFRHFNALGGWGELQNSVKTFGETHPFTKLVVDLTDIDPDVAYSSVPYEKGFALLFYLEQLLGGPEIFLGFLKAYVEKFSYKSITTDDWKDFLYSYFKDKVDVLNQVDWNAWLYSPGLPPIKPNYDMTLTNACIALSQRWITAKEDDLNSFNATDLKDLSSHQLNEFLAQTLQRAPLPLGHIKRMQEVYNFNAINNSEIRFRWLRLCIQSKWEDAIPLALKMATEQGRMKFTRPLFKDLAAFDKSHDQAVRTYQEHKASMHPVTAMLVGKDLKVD

| SMILES | IC50 [1] | IC50 [2] |
| --- | --- | --- |
| O=C(Cc1ccc(Oc2nc3ccccc3s2)cc1F)NCc1c[nH]c2cc(F)ccc12 | 5600 nM | 900 nM |
| O=C(CCc1ccc(OCc2ccncc2)cc1)NCCc1ccc(F)cc1 | 800 nM | > 30000 nM |
| O=C(Cc1ccc(Oc2nc3cc(C(F)(F)F)ccc3s2)cc1F)NCCc1ccc(F)cc1 | 1700 nM | > 30000 nM |
| O=C(Cc1ccc(Oc2ccccc2)cc1)NCCc1ccc(Cl)cc1 | 1800 nM | – |
| Fc1ccc(CCNCc2ccc(Oc3ccccc3)cc2)cc1 | 3600 nM | 200 nM |
| O=C(Cc1ccc(Oc2nc3ccc(F)cc3s2)cc1F)NCCc1ccc(F)cc1 | 27500 nM | > 30000 nM |
| O=C(Cc1ccc(Oc2nc3ccccc3s2)cc1)NCCc1ccc(F)cc1 | 130 nM | 240 nM |
| O=C(Cc1ccc(Oc2ccccc2)cc1)NCCc1ccc(OC(F)(F)F)cc1 | 500 nM | – |
| O=C(Cc1ccc(Oc2ccccc2)cc1)NCCc1ccc(F)cc1 | 900 nM | – |
| O=C(Cc1ccc(Oc2ccccc2)cc1)NCCc1ccc(C(F)(F)F)cc1 | 500 nM | – |
| O=C(Cc1ccc(Oc2nc3cc(F)ccc3s2)cc1F)NCCc1ccc(F)cc1 | 22500 nM | > 30000 nM |
| O=C(Cc1ccc(Oc2nc3ccccc3s2)cc1F)NCCc1ccccc1F | 600 nM | 3800 nM |
| COC(=O)c1ccc(CNC(=O)Cc2ccc(Oc3nc4ccccc4s3)cc2F)cc1 | 100 nM | > 30000 nM |
| O=C(Cc1ccc(Oc2nc3ccc(C(F)(F)F)cc3s2)cc1F)NCCc1ccc(F)cc1 | 20100 nM | > 30000 nM |
| O=C(Cc1ccc(Oc2nc3ccccc3s2)cc1F)NCCc1cccc(F)c1 | 400 nM | – |
| Cc1ccc(CCNC(=O)Cc2ccc(Oc3ccccc3)cc2)cc1 | 1100 nM | > 30000 nM |
